Here are results for 24 compounds from patent US20090143419A1, “METHODS AND COMPOSITIONS FOR CONTROLLING ECTOPARASITES” (HATCHTECH PTY LTD, priority 2005, published 2009).

“Also recorded” adds a separate entry of the source. Structures can show the parent of a compound that is named as a salt. Where two headings read alike, the source gives them in different places. Square brackets hold non-standard residues; d marks the D form. Peptide text beside a SMILES is read from it. * marks the point of attachment. Sta = CC(C)C[C@H](N)[C@@H](O)CC(=O)O; Isovaleryl = CC(C)CC(=O)*; Cbz = O=C(OCc1ccccc1)*; NHOH = ON*

Test [1] deals with lice eggs. In words: Time-course in vitro lice egg hatching assay. The settings on record: for effect on egg hatching: results not shown. It counts as in vivo, clothing lice (Pediculus humanus humanus).
Test [2] deals with Plutella xylostella eggs (Waite strain). In words: Egg hatching of Plutella xylostella.
Test [3] relates to Helicoverpa armigera eggs (Tatura×Toowoomba strains). In words: Egg hatching of Helicoverpa armigera. The settings on record: Table 15.
Procedure: Several hundred Helicoverpa armigera eggs (Tatura×Toowoomba strains) were collected, that had been laid on fine mesh cloth over a 24 hour period.
Batches of Helicoverpa eggs were exposed to a specific inhibitor solution for between 2-10 seconds the excess solution drained by blotting with dry tissue paper. The egg masses were then placed in a humid box at 25 degrees until egg hatch. Control eggs were exposed to absolute methanol as described above.
The test system of test [4] is lice hatching proteases in the egg shell washings (ESW). In words: Gelatine substrate SDS-PAGE of egg shell washings treated with protease inhibitors. The class given is biochemical, Pediculus humanus humanus. Particulars: 3 hrs at 37° C. Here is the method: Within 12 hours of hatching 50 body lice eggs (Pediculus humanus humanus) were removed from the hair and placed in a 1 ml eppendorf tube. 20 μL of distilled water was added to the unhatched eggs and the preparation incubated for 30 minutes at 32° C. The 20 μL was recovered, freeze dried and stored at −70° C. A number of other samples were also collected as described. Hair samples from which unhatched lice eggs had been removed were also collected and incubated as described above. In addition, a sample of unhatched eggs and a sample of hair from which lice eggs had been removed were collected 7 days post laying (within 24 hrs of egg hatching). Both samples were washed in 10 mls of a 1% solution of sodium hypochlorite for 1 minute followed by a 5×1 minute washes in 25 mls in distilled water to remove the hypochlorite. These samples were then incubated in 20 μL of distilled water as described above. In addition, a group of 25 lice eggs that were within 24 hours of hatching, were pretreated with 1% sodium hypochlorite, washed as described above and left to hatch. Within 1-2 hours after hatching the empty egg shells were incubated in 20 μL of distilled water as described above, the washings collected from the hatched egg shells and stored at −70° C. All of the extract samples were then freeze-dried overnight. The freeze-dried samples were then resuspended in 15 μL of non-reducing SDS sample buffer, centrifuged at 10,000 g for 2 minutes and the entire 15 μL loaded on to 10% gelatine substrate SD S-PAGE gels. Gels were run at 4° C. for 10 minutes at 10 mA followed by a further 25 minutes at 15 mA per gel. They were then incubated for 2×20 minutes in a 2.5% Triton-X 100 solution followed by a three hour incubation in 0.1M Tris/HCl containing 1 mM CaCl2 pH 8.0. Activity was detected as clear areas on the gel the result of protease activity degrading the gelatine within the gel.
10% SDS-PAGE gelatine substrate gels were loaded with freeze dried egg shell washings from 100 lice eggs that had been resuspended in 50 μl of non-reducing sample buffer with samples run at 10 μl per lane. Gels were run at 4° C. for 10 minutes at 10 mA per gel followed by a further 25 minutes at 15 mA per gel. Gels were then cut into strips and each strip incubated for 2×20 minutes in a 2.5% Triton-X 100 solution containing a specific inhibitor. The inhibitors used were the serine protease inhibitor PMSF (5 mM), the metalloprotease inhibitor 1,10-phenanthroline (10 mM), the aspartic protease Pepstatin (5 μM) and the cysteine inhibitor E-64 (10 μM). The gel strips were then incubated in 0.1M Tris/HCl containing 1 mM CaCl2 pH 8 containing the different protease inhibitors for 3 hrs at 37° C., before being stained in Coomassie blue and destained as previously described.

In test [5] the test system is lice eggs. In words: Lice egg-hatch bioassay, eggs treated five days post laying. The class given is in vivo, clothing lice (Pediculus humanus humanus). Here is the method: To evaluate the potential effects of protease inhibitors on lice egg hatching it was necessary to develop a reliable in vitro bioassay. Male and female clothing lice were fed on a rabbit as previously described. […] During this period the female lice laid their eggs and attached them to the woven cloth. All lice would then be removed and the eggs permitted to incubate for the following 5 days. […] The eggs would then progress through to their final stages of development and hatch. In untreated control eggs a reliable average percentage hatch of between 85-95 percent was obtained using the in vitro egg hatch assay. […] Lice eggs were laid onto cloth as described above. […] Protease inhibitor solutions were typically prepared as stock solutions and added fresh at the appropriate concentration. Specifically stock solutions were prepared as follows: 1,10-phenanthroline (200 mM in methanol) and bestatin (5 mg/ml in methanol). In addition, the equivalent levels of the solvent were added to the non-inhibitor containing controls eggs to test for any buffer alone effects. Percentage hatch inhibition was calculated as the percentage reduction in egg hatch compared to the untreated control.

Where [6] appears, read: Table 10, 1 mM, eggs laid on cloth.
Setting [7] is: Table 10, 10 mM, eggs laid on cloth.
The mark [8] stands for this setting: Table 11, 1 mM, eggs laid on parafilm.
Setting [9] is: Table 12, 0.01 mM, cloth, dipped approximately 2 seconds.
Where [10] appears, read: Table 12, 0.1 mM, cloth, dipped approximately 2 seconds.
Setting [11] is: Table 12, 1 mM, cloth, dipped approximately 2 seconds.
Where [12] appears, read: Table 12, 10 mM, cloth, dipped approximately 2 seconds.
The mark [13] stands for this setting: Pediculus humanus, 5 mM, read-out: % Inhibition of lice egg hatching (maximum over the time-course).
Where [14] appears, read: Pediculus humanus, 5 mg/ml, read-out: % Inhibition of lice egg hatching (maximum over the time-course).

In the case of `c1ccc(-c2ccccn2)nc1` [2,2′-dipyridyl], in the test with lice eggs [1] (10 mM), the “% Inhibition of lice egg hatching (maximum over the time-course)” value (from here on “% Inhibition of lice egg hatching”) is reported as 100%. For the same compound, the “Ph (number of eggs partly hatched)” value in the test on lice eggs [1] (Table 5, […], per replicate) worked out at 0. Moreover, in the test with lice eggs [1] (in vivo), the lice egg hatching result is “completely inhibited”.
What is called % Inhibition is how much of the control response was suppressed. Low readings indicate little suppression, high ones strong suppression. Take `c1ccc(-c2ccc3ccccc3n2)nc1` [2-(2-pyridinyl)quinoline]: the “% Inhibition” value in test [2] (Table 16, 10 mM, relative to control (100% ETOH)) was “able to inhibit egg hatching”.
With `Cc1ccnc(-c2cc(C)ccn2)c1` [4,4′-dimethyl-2,2′-dipyridyl], the Number hatched in test [3] (1 mM) was 23; in test [3] (10 mM), 8; in test [2] (setting [6]) it was 0; in test [2] (setting [7]), 0; in test [2] (setting [8]), 10; in test [2] (Table 11, 10 mM, eggs laid on parafilm) it was 0. The Number hatched in test [2] (setting [9]) was determined as 29; in test [2] (setting [10]), 33; in test [2] (setting [11]), 0; in test [2] (setting [12]) it was 1. The Number unhatched is given as 29 in test [3] (1 mM); 43 in test [3] (10 mM); 30 in test [2] (setting [6]); 36 in test [2] (setting [7]); 121 in test [2] (setting [8]); 1 in test [2] (setting [9]). The Number unhatched in test [2] (setting [10]) came out at 18; in test [2] (setting [11]) it was 63; in test [2] (setting [12]) it was 77. In addition, the “% Inhibition” value is reported as 100% in test [2] (Table 10, 1 mM, eggs laid on cloth, relative to controls); 100% in test [2] (Table 10, 10 mM, eggs laid on cloth, relative to controls); 91% in test [2] (Table 11, 1 mM, eggs laid on parafilm, relative to controls); 100% in test [2] (Table 11, 10 mM, eggs laid on parafilm, relative to controls).
As for `O=C(O)CNC(=O)C(CS)Cc1ccccc1` [D-L thiorophan, reference compound], the “% Inhibition of lice egg hatching” value in the test with lice eggs [1] (1 mg/ml) was determined as 20%.
As for `O=C(O)CN(CCN(CC(=O)O)CC(=O)O)CC(=O)O` [EDTA, reference compound], the “effect on egg hatching” value in the test with lice eggs [1] (100 mM) is “did not appear to have an effect”.
`O=C(O)CN(CCOCCOCCN(CC(=O)O)CC(=O)O)CC(=O)O` [EGTA, reference compound]: the “effect on egg hatching” value in the test on lice eggs [1] (10 mM) was “did not appear to have an effect”.
Regarding `CNC(=O)[C@H](Cc1c[nH]c2ccccc12)NC(=O)[C@@H](CC(=O)NO)CC(C)C` [GM 6001, reference compound], in the test with lice eggs [1] (concentration not given), the “% Inhibition of lice egg hatching” value is listed as 0%.
As for `CC(C)C[C@H](NC(=O)[C@H]1O[C@@H]1C(=O)O)C(=O)NCCCCN=C(N)N` [Inhibitor E-64], the “protease activity of the ESW” value in test [4] (10 μM inhibitor) is on record as “No reduction in protease activity”.
In general, inhibition refers to the percentage by which the read-out fell short of the control. In the case of `CC(C)C[C@H](N)CS` [L-leucinthiol, reference compound], the inhibition at 5000 µM with lice eggs [1] (setting [13]) was 0%.
On to `CC(C)C[C@H](NC(=O)[C@@H]1CCCN1C(=O)OCc1ccccc1)C(=O)NCC(=O)NO` [N-CBZ-PRO-LEU-GLY hydroximate, reference compound] (Cbz-Pro-Leu-Gly-{NHOH}), for which the “% Inhibition of lice egg hatching” value with lice eggs [1] (10 mM) is recorded as 0%.
On to `O=S(=O)(F)Cc1ccccc1` [PMSF], for which the “protease activity of the ESW” value in test [4] (5 mM inhibitor) is recorded as “No reduction in protease activity”.
Take `CCCCC[C@H](CC(=O)NO)C(=O)N[C@H](C(=O)N1CCC[C@H]1CO)C(C)C` [actinonin, reference compound]: the inhibition at 5000 µM with lice eggs [1] (setting [13]) came to 0%.
On the same count and under the same terms, as for `CC(C)C[C@@H](N)[C@H](O)C(=O)N[C@H](C(=O)N[C@H](C(=O)N[C@@H](CC(=O)O)C(=O)O)C(C)C)C(C)C` [amastatin, reference compound], the figure is 26%.
As to `CC(C)C[C@H](NC(=O)[C@@H](O)[C@H](N)Cc1ccccc1)C(=O)O` [bestatin, reference compound], the lice egg hatching result in the test with lice eggs [5] (5 mM, eggs treated 5 days post laying) is “significantly inhibit lice egg hatching”. Also, in the test on lice eggs [5] (added within 24 hours of hatching), the “inhibition of egg hatching” value was “variable inhibition”. In addition, the inhibition at 5000 µM was found to be 58% in the test with lice eggs [1] (setting [13]) and 53% with lice eggs [1] (Pediculus humanus, 144 h, 5 mM, treated 144 hr post egg laying, read-out: Percent inhibition of egg hatching).
As for `C[C@H](CS)C(=O)N1CCC[C@H]1C(=O)O` [captopril, 1-[(2S)-3-mercapto-2-methyl-1-oxopropyl]-L-proline, reference compound], the inhibition at 23000 µM with lice eggs [1] (Pediculus humanus, 23 mM, read-out: % Inhibition of lice egg hatching (maximum over the time-course)) came to 27%.
Turning to `[H]/N=C(\N/C(=N/[H])NCCCCCCNC(=N)NC(=N)Nc1ccc(Cl)cc1)Nc1ccc(Cl)cc1` [chlorhexidine dihydrochloride, reference compound], in the test on lice eggs [1] (concentration not given), the “% Inhibition of lice egg hatching” value is 0%.
Take `C[C@H]1c2cccc(O)c2C(=O)C2=C(O)[C@]3(O)C(=O)C(C(N)=O)=C(O)[C@@H](N(C)C)[C@@H]3[C@@H](O)[C@@H]21` [doxycycline, reference compound]: in the test with lice eggs [1] (5 mg/ml), the “% Inhibition of lice egg hatching” value worked out at 69%. In addition, the inhibition at 5000 µg/mL with lice eggs [1] (setting [14]) amounted to 65%.
As to `CO[C@@H]1[C@H](OC(=O)/C=C/C=C/C=C/C=C/C(=O)O)CC[C@]2(CO2)[C@H]1[C@@]1(C)O[C@@H]1CC=C(C)C` [fumagillin, reference compound], the inhibition at 5000 µM in the test with lice eggs [1] (setting [13]) was 0%.
Take `CC(C)C[C@H](N)[C@](O)(Cc1cnc[nH]1)C(=O)O` [leuhistin, reference compound]: in the test on lice eggs [1] (5 mM), the “% Inhibition of lice egg hatching” value came to 0%.
With `CN(C)c1ccc(O)c2c1C[C@H]1C[C@H]3[C@H](N(C)C)C(O)=C(C(N)=O)C(=O)[C@@]3(O)C(O)=C1C2=O` [minocycline, reference compound], the inhibition at 5000 µg/mL in the test on lice eggs [1] (setting [14]) was 55%.
As to `CC(C)C[C@H](NC(=O)[C@@H](O)[C@H](N)Cc1ccc([N+](=O)[O-])cc1)C(=O)O` [nitrobestatin, reference compound], in the test on lice eggs [1] (1 mg/ml), the “% Inhibition of lice egg hatching” value is 0%.
On to `CC(C)CC(=O)N[C@H](C(=O)N[C@H](C(=O)N[C@@H](CC(C)C)[C@@H](O)CC(=O)N[C@@H](C)C(=O)N[C@@H](CC(C)C)[C@@H](O)CC(=O)O)C(C)C)C(C)C` [pepstatin] (Isovaleryl-VV[Sta]A[Sta]-OH), for which, in test [4] (5 μM inhibitor), the “protease activity of the ESW” value was “did not show any reduction in protease activity; also recorded: No reduction in protease activity”.
As for `CC(C)C[C@H](NP(=O)(O)O[C@@H]1O[C@@H](C)[C@H](O)[C@@H](O)[C@H]1O)C(=O)N[C@@H](Cc1c[nH]c2ccccc12)C(=O)O` [phosphoramidon, N-(alpha-rhamnopyranosyloxy-hydroxyphosphinyl)-L-leucyl-L-tryptophan, reference compound], the inhibition at 5000 µM in the test with lice eggs [1] (setting [13]) is 41%.
For `CN(C)[C@@H]1C(O)=C(C(N)=O)C(=O)[C@@]2(O)C(O)=C3C(=O)c4c(O)cccc4[C@@](C)(O)[C@H]3C[C@@H]12` [tetracycline, reference compound], the inhibition at 5000 µg/mL with lice eggs [1] (setting [14]) was found to be 89%.
